Assays:
[1] = Tested for inhibition of ICAM expression by ELISA at the dose of 30 uM
[2] = Tested for inhibition of E-selectin expression by ELISA at the dose of 30 uM
[3] = Tested for inhibition of ICAM expression by ELISA at the dose of 30 uM; remark: listed apart in the source
[4] = Tested for inhibition of E-selection expression by ELISA at the dose of 30 uM

Row | IC50 [1] [µM] | IC50 [2] [µM] | IC50 [3] [µM] | IC50 [4] [µM] | Structure (SMILES)
1 | 3.5 | 3.3 | – | – | CC(C)Oc1c(C(N)=O)sc2ccc(O)cc12 [5-Hydroxy-3-isopropoxy-benzo[b]thiophene-2-carboxylic acid amide]
2 | – | – | 4 | 6.6 | COc1ccc2c(c1)c(OC(C)C)c(C(N)=O)[s+]2[O-] (stereo unspecified) [3-Isopropoxy-5-methoxy-1-oxo-benzo[b]thiophene-2-carboxylic acid amide]
3 | 6.6 | 1.4 | – | – | CNC(=O)c1sc2ccc(OC)cc2c1OC(C)C [3-Isopropoxy-5-methoxy-benzo[b]thiophene-2-carboxylic acid methylamide]

From BindingDB's records for doi:10.1021/jm00032a001 (Warner-Lambert, 1994)
